Source: patent US20240299339A1, “COMPOSITION FOR SUPPRESSING MUSCLE DAMAGE” (OTSUKA PHARMACEUTICAL CO., LTD., priority 2021, published 2024)

Test: Verification of function of KMP using 400-m run: blood markers in healthy subjects
Format: in vivo, human
Settings: 16 healthy subjects (20 to 22 years old); single dose of capsule food containing 10 mg of KMP, 3 h before two 400-m full-speed runs 90 min apart; vs placebo
Procedure: According to usual methods, blood samples were taken, and the concentration of each blood marker was measured. […] It is known that blood myoglobin is detected with muscle fiber damage and that its concentration increases with muscle fiber damage (J. Appl. Physiol. 83 (4): 1076-1082, 1997).
The capsule foods used in the test were prepared according to the following procedures. Quinoa grains were extracted twice with 50% aqueous ethanol at 70° C., followed by concentration under reduced pressure. To a solution obtained by purifying the resultant with resin, Aromase H2 (produced by Amano Enzyme, Inc.) was added, and the enzyme was allowed to act (conversion into aglycone) while stirring at 50° C. The resulting reaction liquid was heated to 100° C. and maintained for 15 minutes to inactivate the enzyme. Thereafter, the treated liquid was freeze-dried to give an ethanol extraction powder. To the powder, starch was added in an amount equal to the amount of the powder (on a weight basis), followed by mixing. Capsules were filled with the resulting mixture in an amount of 116 mg (including 2.5 mg of kaempferol) per capsule. The subjects ingested four capsules (10 mg of kaempferol in total) at one time. The food used as the placebo was obtained by filling capsules with only starch.

Compound: O=c1c(O)c(-c2ccc(O)cc2)oc2cc(O)cc(O)c12 [KMP, Kaempferol]
- blood myoglobin level after running at full speed: significantly lower
